The assay concerns the target T1, PD-1/PD-L1 (Homo sapiens, UniProt Q9NZQ7).
T1 construct: purchased CisBio
The experiment in a line: PD1-PDL1 HTRF assay. The following applies: PD-1/PD-L1 homogenous time-resolved fluorescence (HTRF) binding assay; Tag1-PDL1 5 nM, Tag2-PD1 50 nM. The source says: The CisBio HTRF assay kit, purchased from CisBio only, was employed to determine the IC50 values of compounds. The PD1-PDL1 HTRF assay measures the interactions between the two proteins, PD1 and PDL1. The interaction is detected by using anti-Tag1 labeled with Europium (HTRF donor) which binds to PDL1 and anti-Tag2 labeled with XL665 (HTRF acceptor) which binds to PD1. When the two antibodies are in proximity, the excitation of the donor fluorophore results in FRET emission from the acceptor fluorophore. The presence of inhibitors for such an interaction result in reduction of HTRF signal.
The assay was conducted in 96-well white assay plates. All the reagents, including Tag1-PDL1, Tag2-PD1, Anti-Tag1-PDL1, Anti-Tag2-PD1 were thawed and diluted with PPI Europium Detection buffer to achieve the desired concentration as per the manufacturer's protocol. A 1000 μM stock solution of test inhibitors was prepared in DMSO. The stock solution was diluted in DMSO to prepare 8 concentrations (1000-0.001 μM). These stock solutions were further diluted in PPI Europium detection buffer to prepare 8 working stock solutions (100-0.0001 μM). To the 96-well plate, 2 μL of the test inhibitor working stock solutions were added followed by 4 μL of Tag1-PDL1 (5 nM) and 4 μL of Tag2-PD1 (50 nM). The plate was incubated at room temperature for 15 min. Subsequently, 10 μL of pre-mixed Anti-Tag1-PDL1 and Anti-Tag2-PD1 solution was added. The plate was sealed and incubated at room temperature for 1 h. The HTRF signal was read on Perkin Elmer Envision plate reader using excitation wavelength of 320 nm, emission wavelengths of 620 nm and 665 nm. Results were obtained by calculating the ratio of signal from acceptor at 665 nm to that of signal from donor at 620 nm multiplied by […]. The IC50 values were determined by the Hill equation using GraphPad Prism software.

SMILES strings stand for the structures.

The text below walks through data of patent US20260265248A1, “NOVEL PD-L1 INHIBITORS” (AFFIRMA BIOTECH S. L., priority 2023, published 2026).

T1 sequence (Q9NZQ7 19-238 limits assumed): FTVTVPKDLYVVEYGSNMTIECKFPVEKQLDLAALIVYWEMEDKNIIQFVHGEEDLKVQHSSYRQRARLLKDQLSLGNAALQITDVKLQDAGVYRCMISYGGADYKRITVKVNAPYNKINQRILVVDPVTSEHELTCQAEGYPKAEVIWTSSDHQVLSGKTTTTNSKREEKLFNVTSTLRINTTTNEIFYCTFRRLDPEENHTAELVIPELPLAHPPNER

`Cc1c(-c2ccccc2)cccc1-c1ccn2c(-c3ccc(CNCCO)cc3)nnc2c1` [Example 54, 2-((4-(7-(2-methyl-[1,1′-biphenyl]-3-yl)-[1,2,4]triazolo[4,3-a]pyridin-3-yl)benzyl)amino)ethan-1-ol] had an IC50 of 100 to 1000 nM.
In turn, `Cc1c(-c2ccccc2)cccc1-c1ccn2c(-c3ccc(CNCC(O)CC(=O)O)cc3)nnc2c1` (stereo not shown) [Example 55, 3-hydroxy-4-((4-(7-(2-methyl-[1,1′-biphenyl]-3-yl)-[1,2,4]triazolo[4,3-a]pyridin-3-yl)benzyl)amino)butanoic acid] registered a 50% inhibitory concentration (IC50) of 100 to 1000 nM.
Consider `Cc1c(-c2ccc3c(c2)OCCO3)cccc1-c1ccn2c(-c3ccc(CN4CCC[C@@H]4C(=O)O)cc3)nnc2c1` [Example 56, (4-(7-(3-(2,3-dihydrobenzo[b][1,4]dioxin-6-yl)-2-methylphenyl)-[1,2,4]triazolo[4,3-a]pyridin-3-yl)benzyl)-D-proline], for which the IC50 is 10 to 100 nM.
The compound `Cc1c(-c2ccc3c(c2)OCCO3)cccc1-c1ccn2c(-c3ccc(CN4CCC[C@H]4C(=O)O)cc3)nnc2c1` [Example 57, (4-(7-(3-(2,3-dihydrobenzo[b][1,4]dioxin-6-yl)-2-methylphenyl)-[1,2,4]triazolo[4,3-a]pyridin-3-yl)benzyl)-L-proline] had an IC50 of 10 to 100 nM.
For `Cc1c(-c2ccccc2)cccc1-c1ccn2c(-c3ccc(CN4CCC[C@@H]4C(=O)O)cc3)nnc2c1` [Example 58, (4-(7-(2-methyl-[1,1′-biphenyl]-3-yl)-[1,2,4]triazolo[4,3-a]pyridin-3-yl)benzyl)-D-proline] the value was 10 to 100 nM; for `Cc1c(-c2ccc3c(c2)OCCO3)cccc1-c1ccn2c(-c3ccc(CN4C[C@H](O)C[C@H]4C(=O)O)cc3)nnc2c1` [Example 60, (25,4R)-1-(4-(7-(3-(2,3-dihydrobenzo[b][1,4]dioxin-6-yl)-2-methylphenyl)-[1,2,4]triazolo[4,3-a]pyridin-3-yl)benzyl)-4-hydroxypyrrolidine-2-carboxylic acid], 100 to 1000 nM.
For `Cc1c(-c2ccc3c(c2)OCCO3)cccc1-c1ccn2c(-c3ccc(CNCCC(=O)O)cc3)nnc2c1` [Example 61, 3-((4-(7-(3-(2,3-dihydrobenzo[b][1,4]dioxin-6-yl)-2-methylphenyl)-[1,2,4]triazolo[4,3-a]pyridin-3-yl)benzyl)amino)propanoic acid] the value was 100 to 1000 nM; for `Cc1c(-c2ccc(CNCCO)cc2)cccc1-c1cccc(-c2ccn3c(-c4ccc(CN5CCC[C@@H]5C(=O)O)cc4)nnc3c2)c1C` [Example 62, (4-(7-(4″-(((2-hydroxyethyl)amino)methyl)-2,2′-dimethyl-[1,1′:3′,1″-terphenyl]-3-yl)-[1,2,4]triazolo[4,3-a]pyridin-3-yl)benzyl)-D-proline], at most 10 nM.
As for `Cc1c(-c2ccn3c(-c4ccc(CN5CCC[C@@H]5C(=O)O)cc4)nnc3c2)cccc1-c1cccc(-c2cnc(CNCCO)cn2)c1C` [Example 63, (4-(7-(3′-(5-(((2-hydroxyethyl)amino)methyl)pyrazin-2-yl)-2,2′-dimethyl-[1,1′-biphenyl]-3-yl)-[1,2,4]triazolo [4,3-α]pyridin-3-yl)benzyl)-D-proline], the IC50 lay in the range of 10 to 100 nM.
In turn, `Cc1c(-c2ccc(CNCCO)cc2)cccc1-c1cccc(-c2ccn3c(-c4ccc(CN5CCC[C@H]5C(=O)O)cc4)nnc3c2)c1C` [Example 64, (4-(7-(4″-(((2-hydroxyethyl)amino)methyl)-2,2′-dimethyl-[1,1′:3′,1″-terphenyl]-3-yl)-[1,2,4]triazolo[4,3-α]pyridin-3-yl)benzyl)-L-proline] registered a half-maximal inhibitory concentration (IC50) of at most 10 nM.
The compound `Cc1c(-c2ccc(CNCCO)cc2)cccc1-c1cccc(-c2ccn3c(-c4ccc(CN5CC[C@@H](C(=O)O)C5)cc4)nnc3c2)c1C` [Example 65, (R)-1-(4-(7-(4″-(((2-hydroxyethyl)amino)methyl)-2,2′-dimethyl-[1,1′:3′,1″-terphenyl]-3-yl)-[1,2,4]triazolo[4,3-α]pyridin-3-yl)benzyl)pyrrolidine-3-carboxylic acid] showed an IC50 of 10 to 100 nM.
`OCCNCc1ccc(-c2cccc(-c3cccc(-c4ccn5c(-c6ccc(CNCCO)cc6)nnc5c4)c3Cl)c2Cl)cc1` [Example 66, 2-(((2′,2″-dichloro-3″-(3-(4-(((2-hydroxyethyl)amino)methyl)phenyl)-[1,2,4]triazolo[4,3-a]pyridin-7-yl)-[1,1′:3′,1″-terphenyl]-4-yl)methyl)amino)ethan-1-ol] registered an IC50 of 10 to 100 nM.
As for `O=C(O)[C@H]1CCCN1Cc1ccc(-c2nnc3cc(-c4cccc(-c5cccc(-c6ccc(CNCCO)cc6)c5Cl)c4Cl)ccn23)cc1` [Example 67, (4-(7-(2,2′-dichloro-4″-(((2-hydroxyethyl)amino)methyl)-[1,1′:3′,1″-terphenyl]-3-yl)-[1,2,4]triazolo[4,3-a]pyridin-3-yl)benzyl)-D-proline], the IC50 was at most 10 nM.
`Cc1c(NC(=O)c2ccc(CNCCO)cn2)cccc1-c1cccc(-c2ccn3c(-c4ccc(CN5CCC[C@@H]5C(=O)O)cc4)nnc3c2)c1C` [Example 68, (4-(7-(3′-(5-(((2-hydroxyethyl)amino)methyl)picolinamido)-2,2′-dimethyl-[1,1′-biphenyl]-3-yl)-[1,2,4]triazolo[4,3-a]pyridin-3-yl)benzyl)-D-proline] had a half-inhibitory concentration (IC50) of at most 10 nM.
`Cc1c(NC(=O)c2ccc(CNCCO)cn2)cccc1-c1cccc(-c2ccn3c(-c4ccc(CN5CCC[C@H]5C(=O)O)cc4)nnc3c2)c1C` [Example 69, (4-(7-(31-(5-(((2-hydroxyethyl)amino)methyl)picolinamido)-2,2′-dimethyl-[1,1′-biphenyl]-3-yl)-[1,2,4]triazolo [4,3-α]pyridin-3-yl)benzyl)-L-proline] yielded an IC50 of at most 10 nM.
`Cc1c(NC(=O)c2ccc(CNCCO)cn2)cccc1-c1cccc(-c2ccn3c(-c4ccc(CNCCO)cc4)nnc3c2)c1C` [Example 70, 5-(((2-hydroxyethyl)amino)methyl)-N-(3′-(3-(4-(((2-hydroxyethyl)amino)methyl)phenyl)-[1,2,4]triazolo[4,3-a]pyridin-7-yl)-2,2′-dimethyl-[1,1′-biphenyl]-3-yl)picolinamide] had a 50% inhibitory concentration (IC50) of at most 10 nM.
For `Cc1c(NC(=O)c2ccc(CNC[C@H]3CCC(=O)N3)cn2)cccc1-c1cccc(-c2ccn3c(-c4ccc(CNC[C@H]5CCC(=O)N5)cc4)nnc3c2)c1C` [Example 71, N-(2,2′-dimethyl-31-(3-(4-(((((R)-5-oxopyrrolidin-2-yl)methyl)amino)methyl)phenyl)-[1,2,4]triazolo[4,3-α]pyridin-7-yl)-[1,1′-biphenyl]-3-yl)-5-(((((R)-5-oxopyrrolidin-2-yl)methyl)amino)methyl)picolinamide] the value was 10 to 100 nM.
In turn, `COCCNCc1ccc(-c2nnc3cc(-c4cccc(-c5cccc(NC(=O)c6ccc(CNCCO)cn6)c5C)c4C)ccn23)cc1` [Example 72, 5-(((2-hydroxyethyl)amino)methyl)-N-(3′-(3-(4-(((2-methoxyethyl)amino)methyl)phenyl)-[1,2,4]triazolo[4,3-α]pyridin-7-yl)-2,2′-dimethyl-[1,1′-biphenyl]-3-yl)picolinamide] came in with an IC50 of at most 10 nM.
As for `Cc1c(-c2ccn3c(-c4ccc(CN5CCC[C@@H]5C(=O)O)cc4)nnc3c2)cccc1-c1cccc(-c2ccn3c(-c4ccc(CN5CCC[C@@H]5C(=O)O)cc4)nnc3c2)c1C` [Example 73, (2′R)-((((2,2′-dimethyl-[1,1′-biphenyl]-3,3′-diyl)bis ([1,2,4]triazolo[4,3-ci]pyridine-7,3-diyl))bis(4,1-phenylene))bis(methylene))di-D-proline], the IC50 lay in the range of 10 to 100 nM.
On to `Cc1c(-c2ccc(CNC[C@@H]3CCC(=O)N3)cc2)cccc1-c1cccc(-c2ccn3c(-c4ccc(CNC[C@@H]5CCC(=O)N5)cc4)nnc3c2)c1C` [Example 74, (S)-5-((((2′,2″-dimethyl-3″-(3-(4-(((((S)-5-oxopyrrolidin-2-yl)methyl)amino)methyl)phenyl)-[1,2,4]triazolo[4,3-a]pyridin-7-yl)-[1,1′:3′,1″-terphenyl]-4-yl)methyl)amino)methyl)pyrrolidin-2-one], for which the half-maximal inhibitory concentration (IC50) was 10 to 100 nM.
In turn, `Cc1c(-c2ccc(CNCCO)cc2)cccc1-c1cccc(-c2ccn3c(-c4ccc(CNCCO)cc4)nnc3c2)c1C` [Example 75, 2-((4-(7-(4″-(((2-hydroxyethyl)amino)methyl)-2,2′-dimethyl-[1,1′:3′,1″-terphenyl]-3-yl)-[1,2,4]triazolo[4,3-α]pyridin-3-yl)benzyl)amino)ethan-1-ol] registered an IC50 of 10 to 100 nM.
For `Cc1c(-c2ccc(CNC[C@H]3CCC(=O)N3)cc2)cccc1-c1cccc(-c2ccn3c(-c4ccc(CNC[C@H]5CCC(=O)N5)cc4)nnc3c2)c1C` [Example 76, (R)-5-((((2′,2″-dimethyl-3″-(3-(4-(((((R)-5-oxopyrrolidin-2-yl)methyl)amino)methyl)phenyl)-[1,2,4]triazolo[4,3-α]pyridin-7-yl)-[1,1′:3′,1″-terphenyl]-4-yl)methyl)amino)methyl)pyrrolidin-2-one] the value was 10 to 100 nM.
